In this assay the target is human IRAK4 (Homo sapiens (Human), UniProt Q9NWZ3). The assay can be described thus: IRAK4 kinase inhibition, Transcreener fluorescence polarization ADP assay. The format is biochemical. The conditions noted are these: recombinant full-length His6-IRAK4; 125 uM ATP; 90 min; Ki computed using ATP Km 642 uM. The protocol: Compounds were assayed for inhibition of human IRAK4 and IRAK1 catalytic activity using recombinant enzyme produced from insect cells. Full-length IRAK4 protein, carrying an N-terminal His6-Tag, was obtained from Life Technologies (Carlsbad, Calif., USA). The IRAK1 construct was produced internally and was comprised of IRAK1 residues Arg194 to Ser712, preceded by an NH2-terminal His6 tag and the coding sequence for glutathione-S-transferase.
human IRAK4, sequence (Q9NWZ3 whole entry, the tested form may be a part): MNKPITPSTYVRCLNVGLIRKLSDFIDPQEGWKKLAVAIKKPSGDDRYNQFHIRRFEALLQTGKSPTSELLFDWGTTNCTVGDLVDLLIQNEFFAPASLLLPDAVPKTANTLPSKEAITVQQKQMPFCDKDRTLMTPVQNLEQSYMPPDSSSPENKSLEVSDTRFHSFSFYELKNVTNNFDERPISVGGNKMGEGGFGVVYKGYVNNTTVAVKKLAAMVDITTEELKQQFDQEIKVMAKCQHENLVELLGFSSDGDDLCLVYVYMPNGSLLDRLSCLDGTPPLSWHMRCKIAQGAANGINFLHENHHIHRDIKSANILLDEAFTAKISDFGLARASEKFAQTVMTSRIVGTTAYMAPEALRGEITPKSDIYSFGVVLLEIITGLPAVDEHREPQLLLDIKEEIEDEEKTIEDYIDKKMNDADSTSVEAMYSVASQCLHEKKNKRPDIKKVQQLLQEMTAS
The Ki is a dissociation constant, usually derived from enzyme kinetics or from competition with a known ligand. For the molecule `CN1Cc2cc(NC(=O)c3cnn4cccnc34)c(N3CCOCC3)cc2S1(=O)=O` [Example 385, N-(2-methyl-6-morpholino-1,1-dioxo-3H-1,2-benzothiazol-5-yl)pyrazolo[1,5-a]pyrimidine-3-carboxamide], the Ki turned out to be 19 nM.
The figure for `CC1(CC#N)Cc2cc(NC(=O)c3cnn4cccnc34)c(N3CCOCC3)cc2O1` (centres unmarked) [Example 386, N-[2-(Cyanomethyl)-2-methyl-6-morpholino-3H-benzofuran-5-yl]pyrazolo[1,5-a]pyrimidine-3-carboxamide] is 16 nM; for `C[C@]1(CCO)Cc2cc(NC(=O)c3cnn4cccnc34)c(N3CCOCC3)cc2O1` [Example 388, (R)—N-(2-(2-hydroxyethyl)-2-methyl-6-morpholino-2,3-dihydrobenzofuran-5-yl)pyrazolo[1,5-a]pyrimidine-3-carboxamide] it is 12 nM.
Then `CC1(C)Cc2cc(NC(=O)c3cnn4cccnc34)c(N3CCC(F)(CN)CC3)cc2O1` [Example 389, N-[6-[4-(Aminomethyl)-4-fluoro-1-piperidyl]-2,2-dimethyl-3H-benzofuran-5-yl]pyrazolo[1,5-a]pyrimidine-3-carboxamide], with 1.3 nM; and `CN1CC[C@]2(Cc3cc(NC(=O)c4cnn5cccnc45)c(N4CCOCC4)cc3O2)C1` [Example 390, (R)—N-(1′-methyl-6-morpholino-3H-spiro[benzofuran-2,3′-pyrrolidin]-5-yl)pyrazolo[1,5-a]pyrimidine-3-carboxamide], with 16 nM.
`CN1CC[C@@]2(Cc3cc(NC(=O)c4cnn5cccnc45)c(N4CCOCC4)cc3O2)C1` [Example 391, (S)—N-(1′-methyl-6-morpholino-3H-spiro[benzofuran-2,3′-pyrrolidin]-5-yl)pyrazolo[1,5-a]pyrimidine-3-carboxamide]: the Ki came out at 31 nM.
Then `CC(C)(O)C(F)C1(C)Cc2cc(NC(=O)c3cnn4cccnc34)c(N3CCOCC3)cc2O1` (centres unmarked) [Example 392, N-[2-(1-fluoro-2-hydroxy-2-methyl-propyl)-2-methyl-6-morpholino-3H-benzofuran-5-yl]pyrazolo[1,5-a]pyrimidine-3-carboxamide], with 18 nM; and `O=C(Nc1cc2c(cc1N1CCOCC1)OC1(CCNC1)C2)c1cnn2cccnc12` (centres unmarked) [Example 393, N-(6-Morpholinospiro[3H-benzofuran-2,3′-pyrrolidine]-5-yl)pyrazolo[1,5-a]pyrimidine-3-carboxamide], with 24 nM; and `O=C(Nc1cc2c(cc1N1CCOCC1)OC(CO)(CO)C2)c1cnn2cccnc12` [Example 394, N-(2,2-bis(hydroxymethyl)-6-morpholino-2,3-dihydrobenzofuran-5-yl)pyrazolo[1,5-a]pyrimidine-3-carboxamide], with 75 nM.
For `CNC(=O)C1CC1c1cc2c(cc1NC(=O)c1cnn3cccnc13)CC(C)(C)O2` (centres unmarked) [Example 395, N-(2,2-dimethyl-6-(2-(methylcarbamoyl)cyclopropyl)-2,3-dihydrobenzofuran-5-yl)pyrazolo[1,5-a]pyrimidine-3-carboxamide], the Ki amounted to 340 nM.
On to `CC1(C)Cc2cc(NC(=O)c3cnn4cccnc34)c([C@@H]3C[C@H]3C(N)=O)cc2O1` [Example 396, N-(6-((1R,2R)-2-Carbamoylcyclopropyl)-2,2-dimethyl-2,3-dihydrobenzofuran-5-yl)pyrazolo[1,5-a]pyrimidine-3-carboxamide], for which the Ki amounted to 110 nM.
For the molecule `CC1(C)Cc2cc(NC(=O)c3cnn4cccnc34)c([C@@H]3C[C@H]3CO)cc2O1` [Example 397, N-(6-((1R,2R)-2-(Hydroxymethyl)cyclopropyl)-2,2-dimethyl-2,3-dihydrobenzofuran-5-yl)pyrazolo[1,5-a]pyrimidine-3-carboxamide], the Ki stood at 88 nM.
Turning to `CNc1cnc2c(C(=O)Nc3cc4c(cc3N3CCOCC3)C(=O)N(C(C)C)C4)cnn2c1` [Example 398, N-(2-Isopropyl-6-morpholino-1-oxoisoindolin-5-yl)-6-(methylamino)pyrazolo[1,5-a]-pyrimidine-3-carboxamide], the inhibition constant (Ki) is 7 nM.
Then `O=C(Nc1cc2c(cc1N1CCOCC1)C(=O)N([C@H]1CCOC[C@@H]1F)C2)c1cnn2cccnc12` [Example 399, N-[2-[(3R,4S)-3-Fluorotetrahydropyran-4-yl]-6-morpholino-1-oxo-isoindolin-5-yl]pyrazolo[1,5-a]pyrimidine-3-carboxamide], with 5 nM; and `O=C(Nc1cc2c(cc1N1CCOCC1)C(=O)N([C@@H]1CCOC[C@H]1F)C2)c1cnn2cccnc12` [Example 400, N-[2-[(3S,4R)-3-fluorotetrahydropyran-4-yl]-6-morpholino-1-oxo-isoindolin-5-yl]pyrazolo[1,5-a]pyrimidine-3-carboxamide], with 1 nM.
Then `CN1CCc2cc(NC(=O)c3cnn4cccnc34)c(N3CCOCC3)cc2C1=O` [Example 401, N-(2-Methyl-7-morpholino-1-oxo-1,2,3,4-tetrahydroisoquinolin-6-yl)pyrazolo[1,5-a]pyrimidine-3-carboxamide], with 97 nM; and `O=C(Nc1cc2c(cc1N1CCOCC1)S(=O)(=O)CCN2)c1cnn2cccnc12` [Example 402, N-(7-Morpholino-1,1-dioxido-3,4-dihydro-2H-benzo[b][1,4]thiazin-6-yl)pyrazolo[1,5-a]pyrimidine-3-carboxamide], with 19 nM; and `CC1(C)CS(=O)(=O)c2cc(N3CCOCC3)c(NC(=O)c3cnn4cccnc34)cc2N1` [Example 403, N-(3,3-Dimethyl-7-morpholino-1,1-dioxido-3,4-dihydro-2H-benzo[b][1,4]thiazin-6-yl)pyrazolo[1,5-a]pyrimidine-3-carboxamide], with 680 nM.
`Cn1cc(-c2cc3c(cc2NC(=O)c2cnn4cccnc24)CC(C)(C)O3)cn1` [Example 404, N-(2,2-Dimethyl-6-(1-methyl-1H-pyrazol-4-yl)-2,3-dihydrobenzofuran-5-yl)pyrazolo[1,5-a]pyrimidine-3-carboxamide]: the Ki was 64 nM.
With `CC1(C)Cc2cc(NC(=O)c3cnn4cccnc34)c(-c3cncc(C#N)c3)cc2O1` [Example 405, N-(6-(5-Cyanopyridin-3-yl)-2,2-dimethyl-2,3-dihydrobenzofuran-5-yl)pyrazolo[1,5-a]pyrimidine-3-carboxamide], the Ki stood at 520 nM.
The figure for `Cn1ccnc1-c1cc2c(cc1NC(=O)c1cnn3cccnc13)CC(C)(C)O2` [Example 406, N-[2,2-Dimethyl-6-(1-methylimidazol-2-yl)-3H-benzofuran-5-yl]pyrazolo[1,5-a]pyrimidine-3-carboxamide] is 150 nM; for `CC1(C)Cc2cc(NC(=O)c3cnn4cc(C#N)cnc34)c(N3CCOCC3)cc2O1` [Example 407, 6-Cyano-N-(2,2-dimethyl-6-morpholino-2,3-dihydrobenzofuran-5-yl)pyrazolo[1,5-a]pyrimidine-3-carboxamide] it is 6 nM.
Regarding `CC1(C)Cc2cc(NC(=O)c3cnn4cccnc34)c(N3CC[N+](C)(CC(N)=O)CC3)cc2O1` [Example 408, 1-(2-Amino-2-oxoethyl)-4-(2,2-dimethyl-5-(pyrazolo[1,5-a]pyrimidine-3-carboxamido)-2,3-dihydrobenzofuran-6-yl)-1-methylpiperazin-1-ium], the Ki came out at 46 nM.
Then `C[C@]1(CO)Cc2cc(NC(=O)c3cnn4cccnc34)c(N3CCC([C@@](C)(O)C(F)(F)F)CC3)cc2O1` [Example 409, N—((R)-2-(hydroxymethyl)-2-methyl-6-(4-((R)-1,1,1-trifluoro-2-hydroxypropan-2-yl)piperidin-1-yl)-2,3-dihydrobenzofuran-5-yl)pyrazolo[1,5-a]pyrimidine-3-carboxamide], with 6.7 nM; and `C[C@]1(CO)Cc2cc(NC(=O)c3cnn4cccnc34)c(N3CCC([C@](C)(O)C(F)(F)F)CC3)cc2O1` [Example 410, N—((R)-2-(hydroxymethyl)-2-methyl-6-(4-((S)-1,1,1-trifluoro-2-hydroxypropan-2-yl)piperidin-1-yl)-2,3-dihydrobenzofuran-5-yl)pyrazolo[1,5-a]pyrimidine-3-carboxamide], with 6.2 nM.
Take `C[C@@]1(CO)Cc2cc(NC(=O)c3cnn4cccnc34)c(N3CCC([C@@](C)(O)C(F)(F)F)CC3)cc2O1` [Example 411, N—((S)-2-(hydroxymethyl)-2-methyl-6-(4-((R)-1,1,1-trifluoro-2-hydroxypropan-2-yl)piperidin-1-yl)-2,3-dihydrobenzofuran-5-yl)pyrazolo[1,5-a]pyrimidine-3-carboxamide]: the Ki came out at 7.6 nM.
Then `C[C@@]1(CO)Cc2cc(NC(=O)c3cnn4cccnc34)c(N3CCC([C@](C)(O)C(F)(F)F)CC3)cc2O1` [Example 412, N—((S)-2-(hydroxymethyl)-2-methyl-6-(4-((S)-1,1,1-trifluoro-2-hydroxypropan-2-yl)piperidin-1-yl)-2,3-dihydrobenzofuran-5-yl)pyrazolo[1,5-a]pyrimidine-3-carboxamide], with 5.9 nM; and `C[C@]1(CO)Cc2cc(NC(=O)c3cnn4cccnc34)c(N3C[C@@H]4[C@H](C3)[C@H]4C(N)=O)cc2O1` [Example 413, N-((R)-6-((1R,5S,6R)-6-carbamoyl-3-azabicyclo[3.1.0]hexan-3-yl)-2-(hydroxymethyl)-2-methyl-2,3-dihydrobenzofuran-5-yl)pyrazolo[1,5-a]pyrimidine-3-carboxamide], with 32 nM.
Regarding `C[C@@]1(CO)Cc2cc(NC(=O)c3cnn4cccnc34)c(N3C[C@@H]4[C@H](C3)[C@H]4C(N)=O)cc2O1` [Example 414, N-((S)-6-((1R,5S,6S)-6-carbamoyl-3-azabicyclo[3.1.0]hexan-3-yl)-2-(hydroxymethyl)-2-methyl-2,3-dihydrobenzofuran-5-yl)pyrazolo[1,5-a]pyrimidine-3-carboxamide], the Ki was determined as 12 nM.
